Data: EP1170012A1, “CEREBROVASCULAR REGENERATION/RECONSTRUCTION PROMOTERS AND NERVE TISSUE SECONDARY DEGENERATION INHIBITORS COMPRISING GINSENOSIDE RB 1?” (priority 1999, dated 2000)
Where two headings read alike, the source gives them in different places. Marks after values point to notes of the source that are not given here.

Key:
SH-SP rats [1] = type: in vivo; conditions: for learning disability in the water maze tests: also 1st day at the 4th week
Protocol: (§1) First, we examined the actions of intravenous infusion of ginsenoside Rb1. For this purpose, for example, male SH-SP rats, weighing 250 - 300 g at the age of 12-13 weeks were used. The animals were bred in an air-conditioned room with a 12:12 hour light-dark cycle, and water and feeds were supplied ad libitum. The cortical branch of the left middle cerebral artery (MCA) was coagulated and cut under inhalation anesthesia.
After MCA permanent occlusion, according to the method of the inventors of the present invention (Sakanaka and Tanaka) (Igase, K. et al., J. Cereb. Blood Flow Metab., 19, 298-306, 1999; Zhang B. et al., J. Stroke Cerebrovasc. Dis., 7, 1-9, 1998), water maze tests were performed for 4 days at the 2nd week and the 4th week, respectively, and the place navigation abilities of SH-SP rats were determined.
(§2) Male SH-SP rats, at the age of 12-13 weeks, (stroke-prone spontaneously hypertensive rat: weighing 250 - 300 g), were used. Animals were housed in an air-conditioned room furnished with a 12:12 hour light-dark cycle, and water and feeds were supplied ad libitum. The mean blood pressure of the animals was 203±6.9 mmHg. The following experiments were conducted in accordance with the Guide for Animal Experimentation at Ehime University School of Medicine. The cortical branch of the left middle cerebral artery (MCA) of SH-SP rats were coagulated and cut, while their rectal temperature was maintained at 37±0.2°C under inhalation anesthesia.
Immediately after MCA permanent occlusion, […] of physiological saline containing ginsenoside Rb1 at a concentration of 1µg/µl or 0.1µg/µl (60µg or 6µg as ginsenoside Rb1) was injected once into the left femoral vein. Then a catheter connected to the Alza osmotic minipump implanted subcutaneously in the back of each animal was inserted into the same vein from the point of the single injection of ginsenoside Rb1. Physiological saline containing ginsenoside Rb1 was filled in advance in the said osmotic minipump, and ginsenoside Rb1 in a dose of 60µg/day or 6µg/day was continuously infused into the blood stream through the catheter placed in the left femoral vein for 28 days. Flow rate of the ginsenoside Rb1-containing solution was 0.25µl/hour. Control animals with MCA permanent occlusion (ischemic control animals) and sham-operated animals received the same amount of physiological saline.
After the MCA permanent occlusion according to the method of the inventors of the present invention (Sakanaka and Tanaka) (Igase, K. et al., J. Cereb. Blood Flow Metab., 19, 298-306, 1999; Zhang B. et al., J. Stroke Cerebrovasc. Dis., 7, 1-9, 1998), water maze tests were performed for 4 days at the 2nd week and the 4th week, respectively, and place navigation abilities of the SH-SP rats were determined.

SH-SP rats [2] = assay: Ratio of cerebrocortical infarction after MCA permanent occlusion, intravenous infusion; type: in vivo
Protocol: as §1
After the water maze tests at the 4th week, the SH-SP rats were anesthetized with chloral hydrate, and they were perfused and fixed transcardially with 0.1 mole phosphate buffer containing 4% paraformaldehyde. The brains were dissected out and cerebrocortical infarcted areas were photographed. Areas of the left cerebral hemispheres and the left cerebrocortical infarct lesions were measured on the photographs by using an image analysis device. The left cerebrocortical infarcted areas were divided by the left cerebral hemispheric areas to calculate ratios of the cerebrocortical infarction (%).
as §2, with “anesthesia. […]” for “anesthesia.”
After termination of the water maze tests at the 4th week, the SH-SP rats were anesthetized with chloral hydrate, and they were perfused and fixed transcardially with 0.1 mole phosphate buffer containing 4% paraformaldehyde. […] Areas of the left cerebral hemispheres and the left cerebrocortical infarct lesions were measured on the photographs by using an image analysis device. […]

SH-SP rats [3] = assay: Ratio of cerebrovascular area in the non-infarcted ischemic penumbra of the parietal lobe; type: in vivo; conditions: for ischemic side (%), ratio of the cerebrovascular area: non-infarcted ischemic penumbra; for ischemic side (%), ratio of the cerebrovascular area / intact side (%), ratio of the cerebrovascular area: mean ± SE, N = 5; for intact side (%), ratio of the cerebrovascular area: per 1.27 mm^2
Excerpt: Next, we prepared paraffin sections, 5 µm thickness, obtained from brain samples at the level about 2.8 mm posterior to the bregma. Then, we measured the cerebrovascular area per 1.27 mm^2 of the non-infarcted ischemic penumbra in the parietal lobe. This was done for each of the cerebral hemisphere of a group to which ginsenoside Rb1 had been administered intravenously (i.e. the brain tissues had been rescued by administration of ginsenoside Rb1) (Fig. 5). Four sheets of differential interference contrast micrograph were used for measurement (Fig. 6), and the ratio of the cerebrovascular area was calculated (Table 1).
The isolated brain was embedded in paraffin, and paraffin sections, 5µm thick, at the level approximately 2.8 mm posterior to bregma including the cerebrocortical infarct lesion were prepared. Then, we measured the cerebrovascular area per 1.27 mm^2 of the ischemic penumbra rescued by intravenous administration of ginsenoside Rb1. This was done for each of the cerebral hemispheres of the groups to which ginsenoside Rb1 had been administered intravenously (i.e. the brain tissues had been rescued by administering ginsenoside Rb1) (Fig. 5). Four sheets of differential interference contrast micrograph were used for measurement (Fig. 6), and the ratio of the cerebrovascular area was calculated (Table 1). The ratio of cerebrovascular area was also measured in the control hemisphere (intact side).
Fig. 5 is a drawing showing the region for measurement of blood vessel area in the non-infarcted ischemic penumbra of the parietal lobe in a 5µm thick section of the brain. In Fig. 5, the part enclosed with a rectangle is the region for measurement of blood vessel area: cerebrocortical layers II - IV of the parietal lobe; the part painted with black in Fig. 5 is the infarct lesion when ginsenoside Rb1 was administered; and the part shown in gray in Fig. 5 is the infarcted lesion when physiological saline was administered.
Data are represented by mean ± SE. Statistical analyses are conducted by ANOVA + Fisher's PLSD. N = 5.

SH-SP rats [4] = assay: Secondary degeneration of the thalamus: thalamic area ratio and nerve cell count in the VP thalamic nucleus; type: in vivo; conditions: mean ± SE; for ratio of area (%), left thalamic area to right thalamic area: ischemic side/intact side × 100, p < 0.05; for count of nerve cells: per 0.099 mm^2 of the ventral posterior nucleus of the thalamus, p < 0.01
Protocol: Further, paraffin sections prepared from brain samples at the level 3.6 mm posterior to bregma were subjected to Nissl staining, and the ratio of the left thalamic area to the right thalamic area (ischemic side/intact side × 100) at the same level was measured. […] In addition, we have investigated the histological patterns of the ventral posterior nucleus of the thalamus (VP thalamic nucleus) which has reciprocal synaptic connections (fiber connections) with the ischemic core of the cerebral cortex. […] […] Data are represented as mean ± SE. Statistical analyses were conducted by Mann-Whitney U-test. In Table 2, *: p < 0.05, **: p < 0.01.

rats [5] = conditions: rat, in vivo
Excerpt: It has also been reported that no effects of intracerebroventricular administration of ginsenoside Rb1 on brain temperature, cerebral blood flow and blood pressure are observed (Lim J.-H. et al. Neurosci. Res., 28, 191-200, 1997; Zhang B. et al., J. Stroke Cerebrovasc. Dis., 7, 1-9, 1998).

gerbils = conditions: cited from earlier work
SH-SP) rats = conditions: cited from earlier work
cultured nerve cells = conditions: 1 - 100 fg/ml in culture medium; cited from earlier work
[6] = tested on: apoptosis-like nerve cell death; conditions: 1 fg/ml to 100 fg/ml; cited from earlier work
Bcl-XL = conditions: 1 fg/ml to 100 fg/ml; cited from earlier work
lipid peroxides = conditions: cited from earlier work
rats [7] = conditions: rat, in vivo; cited from earlier work
[8] = tested on: normal cultured nerve cells or neurons; conditions: cited from earlier work
[9] = tested on: glutamate-mediated neurotoxicity; conditions: cited from earlier work
[10] = in vivo, po; cited from earlier work
[11] = in vivo; cited from earlier work
[12] = 6µg/day intravenous for 28 days after MCA permanent occlusion
[13] = 60µg/day intravenous for 28 days after MCA permanent occlusion

Protocol for Wistar rats: We used Wistar rats, (weighing about 300 g), which were loaded with 20 g of compression to the lower thoracic cord for 20 minutes, as an animal model for spinal cord injuries. The rats were anesthetized by inhalation of halothane in a mixture of nitrous oxide and oxygen and were loaded with 20 g of compression to the lower thoracic cord for 20 minutes. More than 30 minutes later, ginsenoside Rb1 dissolved in physiological saline was infused once into the left femoral vein (12 µg or 60 µg). Subsequently continuous intravenous administration of ginsenoside Rb1 was performed for 7 days by using an Alza osmotic minipump (12µg/day or 60µg/day). Control animals' and sham-operated animals were administered with the same amount of physiological saline (vehicle). The open field locomotor scores [Basso, Bettie and Bresnakan (BBB) scores] were measured before the loading of spinal cord injury, on the day of spinal cord injury, and from the 1st day to the 7th day after spinal cord injury in order to determine an index of motor functions (Basso D.M. et al., J. Neurotrauma, 13, 343-359, 1996). […] The rats were anesthetized with inhalation of halothane in a mixture of nitrous oxide and oxygen and were loaded with 20 g of compression to the lower thoracic cord for 20 minutes. More than 30 minutes later, ginsenoside Rb1 dissolved in physiological saline was injected once into the left femoral vein (12µg or 60µg), thereafter continuous intravenous administration of ginsenoside Rb1 was performed for 7 days by using an Alza osmotic minipump (12µg/day or 60µg/day). Control animals and sham-operated animals were administered with the same amount of physiological saline (vehicle). The open field locomotor scores [Basso, Bettie and Bresnakan (BBB) scores] were measured before loading spinal cord injury, on the day of spinal cord injury and from the 1st day to the 7th day after the spinal cord injury for use as an index of motor functions (Basso D.M. et al., J. Neurotrauma, 13, 343-359, 1996).

For `CC(C)=CCC[C@](C)(O[C@@H]1O[C@H](CO[C@@H]2O[C@H](CO)[C@@H](O)[C@H](O)[C@H]2O)[C@@H](O)[C@H](O)[C@H]1O)[C@H]1CC[C@]2(C)[C@@H]1[C@H](O)C[C@@H]1[C@@]3(C)CC[C@H](O[C@@H]4O[C@H](CO)[C@@H](O)[C@H](O)[C@H]4O[C@@H]4O[C@H](CO)[C@@H](O)[C@H](O)[C@H]4O)C(C)(C)[C@@H]3CC[C@]12C` [ginsenoside Rb1, Ginsenoside Rb1], the “place navigation disability after MCA permanent occlusion” value (SH-SP rats [1]; 6µg/day or 60µg/day intravenous, compared with physiological saline group) was “significantly improved”, the “learning disability in the water maze tests” value (SH-SP rats [1]; high dose (60µg/day), 4th day at the 2nd week, 3rd and 4th days at the 4th week) was “significantly ameliorated” and the “learning disability in the water maze tests” value (SH-SP rats [1]; low dose (6µg/day), 3rd and 4th day at the 2nd and 4th week) was “significantly ameliorated”. The “swimming speed of SH-SP rats” value (SH-SP rats [1]; rat, in vivo) was “No significant differences”, the “ratio of cerebrocortical infarction” value (SH-SP rats [2]; 6µg/day or 60µg/day intravenous for 28 days, compared with physiological saline group) was “significantly reduced” and the “mean value of the ratio of cerebrocortical infarction compared with that of the physiological saline group” value (SH-SP rats [2]; groups intravenously administered, about 50% or less) was ≤ 50%. For the same compound, the “actual volume of infarction relative to physiological saline group” value (SH-SP rats [2]; intravenous administration, inferred from the area ratio) was “about 1/4”, the “ratios of the cerebrovascular areas, control side versus ischemic side” value (SH-SP rats [3]; 6µg/day and 60 µg/day intravenous, 28 days after MCA permanent occlusion) was “no significant difference” and the “ischemic side (%), ratio of the cerebrovascular area” value (SH-SP rats [3]; [12]) was 8.0 ± 0.58%. The “intact side (%), ratio of the cerebrovascular area” value (SH-SP rats [3]; [12]) was 7.0 ± 0.64%, the “ischemic side (%), ratio of the cerebrovascular area” value (SH-SP rats [3]; [13]) was 9.0 ± 0.52% and the “intact side (%), ratio of the cerebrovascular area” value (SH-SP rats [3]; [13]) was 8.3 ± 0.92%. For the same compound, the “ratio of area (%), left thalamic area to right thalamic area” value (SH-SP rats [4]; 6µg/day intravenous) was 95.9 ± 3.3* %, the “count of nerve cells” value (SH-SP rats [4]; 6µg/day intravenous) was 30.6 ± 2.9** and the “ratio of area (%), left thalamic area to right thalamic area” value (SH-SP rats [4]; 60µg/day intravenous) was 95.3 ± 2.4* %. The “count of nerve cells” value (SH-SP rats [4]; 60µg/day intravenous) was 31.5 ± 3.6**, the adverse effects (rats [5]) was “No adverse effects were detected” and the “motor ability (BBB scores)” value (Wistar rats; 12µg/day or 60µg/day intravenous, 7th day after spinal cord injuries, dose-dependent) was “significantly ameliorated”. The “paraplegia of both hindlimbs” value (Wistar rats; 60 µg/day intravenous after 20 g compression for 20 minutes, after 2 days) was “significantly ameliorated”, the “wound healing of the dorsal skin incision” value (Wistar rats; rat, in vivo) was “no such adverse effects were noted” and the “delayed neuronal death and learning disability” value (gerbils; intracerebroventricular infusion starting immediately after 3 or 3.5 minutes carotid occlusion) was “suppresses the delayed neuronal death and learning disability”. The “hippocampal CA1 pyramidal neurons rescued” value (gerbils; intraperitoneal 10 mg/kg/day or 20 mg/kg/day before ischemic loading) was “about 30%”, the “delayed neuronal death and learning disability” value (gerbils; intraperitoneal 10 or 20 mg/kg/day once a day for one week in advance, 5 minutes carotid occlusion) was “significantly prevent” and the “effect of administration after the ischemic insult” value (gerbils; intraperitoneal, after the ischemic insult) was “no effect”. For the same compound, the “effect on cerebral infarction” value (SH-SP) rats; continuous intracerebroventricular infusion 0.6µg/day after MCA occlusion) was “significant suppressive effect”, the “effect on cerebral infarction” value (SH-SP) rats; continuous intracerebroventricular infusion 6µg/day or 0.06µg/day after MCA permanent occlusion) was “no therapeutic effect” and the “neuronal necrosis caused by ferrous sulfate” value (cultured nerve cells) was “reduces neuronal necrosis”. The “apoptosis-like nerve cell death” value [6] was “suppresses apoptosis-like nerve cell death”, the “expression of Bcl-XL” value (Bcl-XL) was “increasing the expression” and the “formation of lipid peroxides” value (lipid peroxides; 100 fg/ml) was “slightly suppressive action”. For the same compound, the “formation of lipid peroxides” value (lipid peroxides; lower concentration range than 100 fg/ml) was “no such effect was observed”, the “brain temperature, cerebral blood flow and blood pressure” value (rats [7]) was “no effects” and the “normal metabolic activity of cultured nerve cells” value [8] was “no effect on normal metabolic activity”. The SNP-induced injuries ([8]; low extracellular concentrations (1 - 100 fg/ml)) was “protects only nerve cells against SNP-induced injuries”, the neurotoxicity [9] was “increased neurotoxicity” and the glutamate-mediated neurotoxicity ([9]; high concentrations (0.11-11 µg/ml)) was “reduce glutamate-mediated neurotoxicity”. The detection in blood [10] was “can not be detected in blood” and the “transfer to the central nervous system” value [11] was “transferred rapidly”.
